In brackets after ≈: the same amount, converted by molar mass.
Legend:
Assay type in all cases: cell-based, Plasmodium falciparum
P. falciparum D6 = assay: Malaria SYBR Green Fluorescence Assay, D6 strain; details: for D6 / IC50: SYBR Green Assay; for IC50: Plasmodium falciparum
P. falciparum C235 = assay: Malaria SYBR Green Fluorescence Assay, C235 strain; details: for C235 / IC50: SYBR Green Assay; for IC50: Plasmodium falciparum
P. falciparum W2 = assay: Malaria SYBR Green Fluorescence Assay, W2 strain; details: for W2 / IC50: SYBR Green Assay; for IC50: Plasmodium falciparum

Row | Compound | D6 (P. falciparum D6) [ng/mL] | C235 (P. falciparum C235) [ng/mL] | W2 (P. falciparum W2) [ng/mL] | also measured
1 | NC1CCCCC1Nc1nc(-c2ccc(Cl)c(Cl)c2)nc(C(Cl)(Cl)Cl)n1 (stereo not drawn) [Compound 740, NC1CCCCC1NC1═NC(═NC(═N1)C1═CC(Cl)═C(Cl)C═Cl)C(Cl)(Cl)Cl] | 38 | 23 | 11 | –
2 | ClC(Cl)(Cl)c1nc(Nc2ccncc2)nc(-c2ccc(N3CCCC3)cc2)n1 [Compound 744, ClC(Cl)(Cl)C1═NC(NC2═CC═NC═C2)═NC(═N1)C1═CC═C(C═C1)N1CCCC1] | 190 | 290 | 188 | –
3 | Oc1ccc(Nc2nc(NCCN3CCCC3)nc(C(Cl)(Cl)Cl)n2)cc1 [Compound 745, 4-((4-((2-(pyrrolidin-1-yl)ethyl)amino)-6-(trichloromethyl)-1,3,5-triazin-2-yl)amino)phenol] | – | – | – | IC50 (P. falciparum D6): 0.144 µg/mL (≈ 0.345 µM); IC50 (P. falciparum C235): 0.389 µg/mL (≈ 0.931 µM); IC50 (P. falciparum W2): 0.08 µg/mL (≈ 0.192 µM)
4 | NC1CCN(c2nc(-c3ccc(F)cc3)nc(C(Cl)(Cl)Cl)n2)CC1 [Example 2, 1-(4-(4-fluorophenyl)-6-(trichloromethyl)-1,3,5-triazin-2-yl)piperidin-4-amine] | – | – | – | IC50 (P. falciparum D6): 0.137 µg/mL (≈ 0.351 µM); IC50 (P. falciparum C235): 0.15 µg/mL (≈ 0.384 µM); IC50 (P. falciparum W2): 0.078 µg/mL (≈ 0.2 µM)
5 | CC(=O)N1CCN(c2nc(-c3ccc(Cl)c(Cl)c3)nc(C(Cl)(Cl)Cl)n2)CC1 [Example 3, 1-(4-(4-(3,4-dichlorophenyl)-6-(trichloromethyl)-1,3,5-triazin-2-yl)piperazin-1-yl)ethan-1-one] | – | – | – | IC50 (P. falciparum D6): 0.687 µg/mL (≈ 1.46 µM); IC50 (P. falciparum C235): 0.535 µg/mL (≈ 1.14 µM); IC50 (P. falciparum W2): 0.198 µg/mL (≈ 0.422 µM)
6 | CC1═CC═C(C═C1)C1═NC(NCC2(N)CCCCC2)═NC(═N1)C(Cl)(Cl)Cl [Compound 660] | 8 | 17 | 9 | –
7 | CC1═CC═C(C═C1)C1═NC(═NC(═N1)C(Cl)(Cl)Cl)N1CCC(N)CC1 [Compound 623] | – | – | – | D6 (SYBR Green Assay IC50) (P. falciparum D6): 0.058 µg/mL; C235 (SYBR Green Assay IC50) (P. falciparum C235): 0.032 µg/mL; W2 (SYBR Green Assay IC50) (P. falciparum W2): 0.021 µg/mL
8 | CC(C)(C)c1ccc(cc1)c2nc(NCC(C)(C)CN3CCCCCC3)nc(n2)C(Cl)(Cl)Cl [Compound 737] | 241.3 | 244.2 | 101.3 | –
9 | CC(C)(C)c1ccc(cc1)c2nc(NCc3cccc(CN4CCCC4)c3)nc(n2)C(Cl)(Cl)Cl [Compound 735] | 207.4 | 257.5 | 60.65 | –
10 | CC(C)CN1CCC(CC1)NC1═NC(═NC(═N1)C1═CC(═CC═C1)C(F)(F)F)C(Cl)(Cl)Cl [Compound 700] | 513 | 567 | 368 | –
11 | CC(C)CN1CCC(CC1)NC1═NC(═NC(═N1)C1═CC═C(C═C1)C1═CC═CC═C1)C(Cl)(Cl)Cl [Compound 699] | 564 | 746 | 430 | –
12 | CC(C)CN1CCC(CC1)NC1═NC(═NC(═N1)C1═CC═CC═C1)C(Cl)(Cl)Cl [Compound 704] | 867 | 525 | 223 | –
13 | CC(C)CN1CCC(CC1)NC1═NC(═NC(═N1)C(Cl)(Cl)Cl)C1═C(C═CC═C1)[N+]([O−])═O [Compound 684] | 225 | 155 | 66 | –
14 | CC(C)CN1CCC(CC1)NC1═NC(═NC(═N1)C(Cl)(Cl)Cl)C1═CC═C(Cl)C(Cl)═C1 [Compound 692] | 32 | 43 | 24 | –
15 | CCN1CCCC(C1)NC1═NC(NC2═CC═C(OC(F)(F)F)C═C2)═NC(═N1)C(Cl)(Cl)Cl [Compound 655] | 19 | 28 | 11 | –
16 | CN1CCCN(CC1)C1═NC(NC2═CC═C(OC(F)(F)F)C═C2)═NC(═N1)C(Cl)(Cl)Cl [Compound 658] | 701 | 875 | 625 | –
17 | CN1CCN(CC1)c2ccc(Nc3nc(nc(n3)C(Cl)(Cl)Cl)C(Cl)(Cl)Cl)cc2 [Compound 731] | 229 | 263 | 165 | –
18 | CN(C)CCCNc1nc(Nc2ccc(Cl)cc2)nc(n1)C(Cl)(Cl)Cl [Compound 636] | – | – | – | D6 (SYBR Green Assay IC50) (P. falciparum D6): 0.016 µg/mL; C235 (SYBR Green Assay IC50) (P. falciparum C235): 0.04 µg/mL; W2 (SYBR Green Assay IC50) (P. falciparum W2): 0.018 µg/mL
19 | COC1═C2C═CC═CC2═C(C═C1)C1═NC(NC2CCN(CC(C)C)CC2)═NC(═N1)C(Cl)(Cl)Cl [Compound 703] | 324 | 338 | 237 | –
20 | COC1═C(OC)C═C(C═C1)C1═NC(NC2CCN(CC(C)C)CC2)═NC(═N1)C(Cl)(Cl)Cl [Compound 702] | 435 | 480 | 179 | –

Row | Compound | D6 (P. falciparum D6) [ng/mL] | C235 (P. falciparum C235) [ng/mL] | W2 (P. falciparum W2) [ng/mL] | also measured
21 | COC1═C(OC)C═C(C═C1)C1═NC(NCC2(N)CCCCC2)═NC(═N1)C(Cl)(Cl)Cl [Compound 669] | 12 | 23 | 10 | –
22 | COC1═CC(═CC═C1)C1═NC(═NC(═N1)C(Cl)(Cl)Cl)N1CCC(N)CC1 [Compound 629] | – | – | – | D6 (SYBR Green Assay IC50) (P. falciparum D6): 0.021 µg/mL; C235 (SYBR Green Assay IC50) (P. falciparum C235): 0.019 µg/mL; W2 (SYBR Green Assay IC50) (P. falciparum W2): 0.015 µg/mL
23 | CS(═O)(═O)C1═CC═C(C═C1)C1═NC(NCC2(N)CCCCC2)═NC(═N1)C(Cl)(Cl)Cl [Compound 665] | 76 | 147 | 76 | –
24 | CS(═O)(═O)c1ccc(cc1)c2nc(Nc3ccc(cc3)n4cccn4)nc(n2)C(Cl)(Cl)Cl [Compound 689] | 94 | 171 | 58 | –
25 | CS(═O)(═O)c1ccc(cc1)c2nc(Nc3cccnc3)nc(n2)C(Cl)(Cl)Cl [Compound 654] | 198 | 271 | 185 | –
26 | CSC1═CC═C(C═C1)C1═NC(═NC(NC2CCN(CC(C)C)CC2)═N1)C(Cl)(Cl)Cl [Compound 695] | 582 | 675 | 418 | –
27 | CSC1═CC═C(C═C1)C1═NC(═NC(═N1)C(Cl)(Cl)Cl)N1CCC(N)CC1 [Compound 626] | – | – | – | D6 (SYBR Green Assay IC50) (P. falciparum D6): 0.018 µg/mL; C235 (SYBR Green Assay IC50) (P. falciparum C235): 0.011 µg/mL; W2 (SYBR Green Assay IC50) (P. falciparum W2): 0.007 µg/mL
28 | CSc1ccc(cc1)c2nc(nc(n2)C(Cl)(Cl)Cl)N3CC4CC3CN4 [Compound 723] | 128 | 118 | 92 | –
29 | CSc1ccc(cc1)c2nc(nc(n2)C(Cl)(Cl)Cl)N3CC4CC3CN4C(═O)OC(C)(C)C [Compound 710] | 145 | 571 | 281 | –
30 | ClC(Cl)(Cl)c1ccc(cc1)c2nc(NCc3ccncc3)nc(n2)C(Cl)(Cl)Cl [Compound 652] | – | – | – | D6 (SYBR Green Assay IC50) (P. falciparum D6): 0.385 µg/mL; C235 (SYBR Green Assay IC50) (P. falciparum C235): 0.876 µg/mL; W2 (SYBR Green Assay IC50) (P. falciparum W2): 0.301 µg/mL
31 | ClC(Cl)(Cl)c1nc(Nc2ccc(cc2)n3cccn3)nc(n1)C(Cl)(Cl)Cl [Compound 732] | 386 | 584 | 160 | –
32 | Clc1ccc(cc1)c2nc(nc(n2)C(Cl)(Cl)Cl)N3CC4CC3CN4 [Compound 717] | 259 | 264 | 163 | –
33 | Clc1ccc(cc1Cl)c2nc(nc(n2)C(Cl)(Cl)Cl)N3CC4CC3CN4 [Compound 716] | 540.4 | 439.4 | 335.2 | –
34 | FC(F)(F)OC1═CC═C(NC2═NC(═NC(NCCCN3CCCC3)═N2)C(Cl)(Cl)Cl)C═C1 [Compound 657] | 535 | 731 | 390 | –
35 | FC(F)(F)OC1═CC═C(NC2═NC(═NC(═N2)C(Cl)(Cl)Cl)N2CC3CC2CN3)C═C1 [Compound 725] | 64 | 93 | 53 | –
36 | NC1(CNC2═NC(═NC(═N2)C2═CC(Cl)═CC(Cl)═C2)C(Cl)(Cl)Cl)CC1 [Compound 683] | 727 | 795 | 503 | –
37 | NC1(CNC2═NC(═NC(═N2)C2═CC(Cl)═CC═C2)C(Cl)(Cl)Cl)CC1 [Compound 680] | 100 | 98 | 35 | –
38 | NC1CCN(CC1)C1═NC(═NC(═N1)C1═CC2═C(C═CC═C2)C═C1)C(Cl)(Cl)Cl [Compound 628] | – | – | – | D6 (SYBR Green Assay IC50) (P. falciparum D6): 0.042 µg/mL; C235 (SYBR Green Assay IC50) (P. falciparum C235): 0.02 µg/mL; W2 (SYBR Green Assay IC50) (P. falciparum W2): 0.017 µg/mL
39 | NC1CCN(CC1)C1═NC(═NC(═N1)C1═CC═C(C═C1)C1═CC═CC═C1)C(Cl)(Cl)Cl [Compound 634] | – | – | – | D6 (SYBR Green Assay IC50) (P. falciparum D6): 0.145 µg/mL; C235 (SYBR Green Assay IC50) (P. falciparum C235): 0.088 µg/mL; W2 (SYBR Green Assay IC50) (P. falciparum W2): 0.062 µg/mL

Reference: US9334246B2, “Substituted triazines for malaria treatment and chemoprophylaxis” (The United States of America, as represented by the …, priority 2013, dated 2016)
